Test results published in paper PMC9227781, “Inhibitors of O-Acetylserine Sulfhydrylase with a Cyclopropane-Carboxylic Acid Scaffold Are Effective Colistin Adjuvants in Gram Negative Bacteria” (Pharmaceuticals, 2022).

Experiments:
StOASS-B = target: T1, StOASS-B (Salmonella typhimurium, UniProt P29848); assay: Fluorescence binding assay on purified recombinant StOASS-B
T1 construct: His-tag (with TEV site) (cleaved yes); made in house; host or cells: E. coli Rosetta (DE3)
T1 sequence (P29848 1-303): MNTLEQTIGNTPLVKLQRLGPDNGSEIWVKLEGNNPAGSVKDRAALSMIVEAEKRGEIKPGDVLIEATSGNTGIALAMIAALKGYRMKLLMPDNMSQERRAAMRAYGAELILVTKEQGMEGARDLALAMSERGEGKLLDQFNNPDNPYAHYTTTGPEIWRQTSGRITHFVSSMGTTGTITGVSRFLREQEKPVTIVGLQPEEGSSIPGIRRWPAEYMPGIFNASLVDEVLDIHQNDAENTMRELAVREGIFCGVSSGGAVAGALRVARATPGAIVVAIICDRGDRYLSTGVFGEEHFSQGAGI
Procedure: The affinity of the compounds for StOASS-A and StOASS-B was determined on the purified recombinant proteins by an in vitro fluorescence binding assay. Measurements were carried out at 20 °C in a 3 mm pathlength quartz microcuvette in 100 mM HEPES, 5% DMSO (Applichem, Darmstadt, Germany), pH 7.0, using a Fluoromax-4 (Horiba Jobin-Yvon, Kyoto, Japan) spectrofluorometer. Emission spectra of solutions containing 0.2–1.0 μM StOASS, upon excitation of the pyridoxal 5′-phosphate cofactor at 412 nm, in the presence of increasing concentrations of compounds were collected; fluorescence intensities at 500 nm were plotted to compound concentration and data were fitted to a binding isotherm: I=I0+ΔI·compound/KD+compound where I is the fluorescence emission intensity at 500 nm in the presence of a given concentration of compound, I0 is the initial fluorescence emission in the absence of ligands, ΔI is the amplitude of the fluorescence emission change and KD is the dissociation constant. When the KD was lower than the protein concentration, data were fitted to the quadratic equation: I=I0+ΔI·OASS+compound+KD−OASS+compound+KD^2−4·OASS·compound/2
Data were collected in duplicate.
Esters were tested up to a concentration of 100 μM and no binding was observed.

E. coli ATCC 25922 = assay: MIC by broth microdilution, E. coli; format: cell-based, Escherichia coli; settings: Escherichia coli, ATCC25922; compound alone, MHB, 24 h at 37 °C; read-out: MIC (μg/mL) E.coli ATCC 25922
How it was run: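 CLSI-based broth microdilution in MHB, inoculum 5 × 10^5 CFU/mL from log-phase cultures, compounds tested at 256–0.5 µg/mL final, 24 h at 37 °C static aerobic. MIC read by unaided eye with mirror plus OD620 for growth inhibition; mean ± SD of three experiments in triplicate.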

K. pneumoniae ATCC13883 = assay: MIC by broth microdilution, K. pneumoniae; format: cell-based, Klebsiella pneumoniae; settings: Klebsiella pneumoniae, ATCC13883; compound alone, MHB, 24 h at 37 °C; read-out: MIC (μg/mL) K. pneumoniae ATCC13883

SMILES	KD (μM) OASS-B (StOASS-B; 20 °C, 100 mM HEPES, 5% DMSO, pH 7.0, racemic mixture, esters tested up to 100 μM)	MIC (E. coli ATCC 25922) [µg/mL]	MIC (K. pneumoniae ATCC13883) [µg/mL]	Kd (StOASS-B) [µM]
CCOC(=O)C1(Cc2ccc(C)cc2)CC1c1cccc(N2CC(C)OC(C)C2)c1 (stereo not drawn) [Compound 12h, trans-ethyl 2-(3-(2,6-dimethylmorpholino)phenyl)-1-(4-methylbenzyl)cyclopropanecarboxylate]	No binding	> 512	> 512	–
Cc1ccc(CC2(C(=O)O)CC2c2cccc(N3CC(C)OC(C)C3)c2)cc1 (stereo not drawn) [Compound 13h, trans-2-(3-(2,6-dimethylmorpholino)phenyl)-1-(4-methylbenzyl)cyclopropanecarboxylic acid]	–	> 512	> 512	3.37 ± 0.72
